Like-named read-outs stand apart in the source and are kept apart here.
Tests used:
[1] = test system: patient one suffering from Ankylosing Spondylitis; assay: Clinical course of a patient with ankylosing spondylitis (Example 7); type: in vivo, human; conditions: for control of the disease by prior therapy: before pramipexole
[2] = test system: patient two suffering from autoimmune hemolytic anemia with leukopenia; conditions: one patient
Description: Patient two suffered from autoimmune hemolytic anemia. The patient had leukopenia (reduced white blood cell (WBC) count; 2,300 WBC). Steroids were recommended, but the patient refused. The patient's heart rate variability was monitored using system 10: vagus, 0.17; sympathetic, 52; tension, 199; total power, 201. […] Therefore, pramipexole was prescribed for administration at night to address sympathetic overactivity. The patient's symptoms improved, and their WBC count began to increase (2400). These changes correlated with a reduction in excessive sympathetic nervous system activity: vagus, 0.22; sympathetic, 45; tension, 147; total power, 294.
The patient discontinued pramipexole against medical advice. WBC decreased to 2100 as excessive sympathetic nervous system activity increased: vagus, 0.20; sympathetic, 70; tension, 236; total power, 280.

[3] = test system: sympathetic nervous system activity in the heart; conditions: for sympathetic / tension / total power / vagus: one patient on pramipexole plus steroid therapy; for sympathetic (heart rate variability) / tension (heart rate variability) / total power (heart rate variability) / vagus (heart rate variability): one patient
Description: This system is commercially available as The OmegaWave Sport Technology System, which is sold by OmegaWave Sport, Inc., 2732 Sunnyview Lane, Eugene, Oreg. 97405, USA. […] FIG. 4 illustrates one embodiment of components of the system and various electrode/sensor placements on the human body. System 10 is adapted to perform the following tests on a human body: Heart Rate Variability; Differential electrocardiogram (ECG); Omega Wave; Jump; and Stimulus Response. In the practice of the present invention, system 10 is used to perform the Heart Rate Variability test.
Referring to FIG. 7, a diagram that illustrates the steps of conducting a heart rate variability test in accordance with the present invention is shown. In step 110, a person receiving a test (PRT) positions him or herself for sensor attachment. In step 112, the sensors are attached. In step 114, a user selects the desired heart rate variability test from CD 50. In step 115, ID 40 is initialized for appropriate data sensing and data propagation by CD 50. In step 116, the PRT is instructed to attain or maintain a state of rest. In step 117, the machine executable steps of the selected test(s) is/are carried out by CD 50. […] A description of machine executable steps of the heart rate variability test selected in step 114 of FIG. 7 is now presented. Processing cardiac signals as discussed below permits quantitative and qualitative analysis of the functional state of cardiac activity.
In this representative heart rate variability test, four electrode sensors are preferably utilized and they are preferably placed one each on the wrists and ankles. One sensor electrode is a ground and the other three collect standard ECG data or the like. Alternative sensor placement may be utilized. The heart rate variability test is based on the registration of cardiac contractions of standard electrocardiogram (ECG) readings over the course of a fixed span of time. The test records the change of period length (in seconds) between each cardiac contraction which is the time between ECG spikes, which are designated with the letter R.
After initialization of ID 40, cardiac muscle electrical activity is recorded for a fixed time period, e.g., 128 seconds (step 152). A fixed number of consecutive heart beat intervals (RR intervals), e.g., 100, is selected and analyzed (step 154). The intervals are processed in this exemplary method using a fast Fourier transformation to achieve frequency spectrum analysis (step 156) and the density of interval frequencies is plotted in a frequency spectrum-gram (step 158). Frequency spectrum analysis is known in the art as described supra. The following frequency ranges are preferably plotted: high frequency=0.15 to 0.4 Hz; low frequency=0.04 to 0.15 Hz; and very low frequency=0.004 to 0.04 Hz.
In step 172, various indices for cardiovascular system performance are calculated based on frequency spectrum and other data and these include: Vagus (parasympathetic) Regulation (VR); Humoral Regulation (HR); Sympathetic Regulation (SR); Tension (Stress) Index; Share of aperiodic influences; Standard deviation; and Frequency of Cardiac Contractions (FCC). Calculation of these or related indices is known in the art. (See, e.g., Baevskiy, R. M., et al., Mathematical Analysis of Changes in Heart Rate Rhythm Under Stress, Moscow Science, 1984). These indices may be interpreted to generate textual conclusions about the functional state of cardiac activity.
The OmegaWave Sport Technology System, described herein and in published United States patent application serial number U.S. 2002/0045835 A1, provides three values that can be used singly, or in combination, to determine whether sympathetic nervous system activity predominates over parasympathetic nervous system activity in the heart: activity of the vagus (parasympathetic) regulation mechanisms; activity of the sympathetic regulation mechanisms; and Tension index.

[4] = test system: patient suffering from severe, previously untreatable, psoriatic arthropathy; assay: Clinical course of a patient with severe psoriatic arthropathy (Example 3); type: in vivo, human; conditions: one patient
Description: The following heart rate variability measurements were made in the patient using system 10: vagus, 0.16; sympathetic, 54; tension, 220; total power, 283.

[5] = after the patient discontinued pramipexole
[6] = pramipexole 2.0 mg per day at bedtime, with etanercept
[7] = pramipexole increased over 4 weeks to 4.5 mg per day at bedtime

CN(Cc1cnc2nc(N)nc(N)c2n1)c1ccc(C(=O)N[C@@H](CCC(=O)O)C(=O)O)cc1 [methotrexate]
control of the disease by prior therapy [1]: failed to control

CCCN[C@H]1CCc2nc(N)sc2C1 [pramipexole]
WBC [2, 5]: 2100
WBC count ([2]; on pramipexole at night, 2,300 before treatment): 2400
sympathetic ([3]; Dec. 11, 2001): 61
tension ([3]; Dec. 11, 2001): 374
total power ([3]; Dec. 11, 2001): 102
vagus ([3]; Dec. 11, 2001): .10
sympathetic ([3]; Feb. 5, 2002): 87
tension ([3]; Feb. 5, 2002): 569
total power ([3]; Feb. 5, 2002): 128
vagus ([3]; Feb. 5, 2002): .09
sympathetic ([3]; Nov. 14, 2001): 93
tension ([3]; Nov. 14, 2001): 1278
total power ([3]; Nov. 14, 2001): 24
vagus ([3]; Nov. 14, 2001): .05
sympathetic ([3]; Oct. 10, 2001): 93
tension ([3]; Oct. 10, 2001): 1444
total power ([3]; Oct. 10, 2001): 29
vagus ([3]; Oct. 10, 2001): .05
sympathetic (heart rate variability) [3, 5]: 70
tension (heart rate variability) [3, 5]: 236
total power (heart rate variability) [3, 5]: 280
vagus (heart rate variability) [3, 5]: 0.20
sympathetic (heart rate variability) ([3]; on pramipexole at night): 45
tension (heart rate variability) ([3]; on pramipexole at night): 147
total power (heart rate variability) ([3]; on pramipexole at night): 294
vagus (heart rate variability) ([3]; on pramipexole at night): 0.22
sympathetic (heart rate variability) [3, 6]: 54
tension (heart rate variability) [3, 6]: 220
total power (heart rate variability) [3, 6]: 283
vagus (heart rate variability) [3, 6]: 0.16
sympathetic (heart rate variability) [3, 7]: 43
total power (heart rate variability) [3, 7]: 319
vagus (heart rate variability) [3, 7]: 0.19
tension (heart rate variability) ([3]; pramipexole increased over 4 weeks to 4.5 mg per day at bedtime, now normal): 145

C[C@]12C=CC(=O)C=C1CC[C@@H]1[C@@H]2C(=O)C[C@@]2(C)[C@H]1CC[C@]2(O)C(=O)CO [prednisone]
adverse outcome of excessive prednisone ([1]; prednisone 40 mg per day): avascular necrosis of both hips and hip replacement

etanercept
response of chronic joint flares and synovial thickening to treatment ([4]; fifteen years, before pramipexole): resistant
effectiveness of etanercept after pramipexole was added ([4]; over six weeks, pramipexole 2.0 mg per day at bedtime): became more effective
control of the disease by prior therapy [1]: failed to control

Reference: patent US20040171954A1, “Methods for determining whether to provide an inhibitor of sympathetic nervous system activity to a human being suffering from an autoimmune disease or fibryomyalgia” (CNS-Rheumatology, Inc., priority 2003, published 2004)
